Results as given in patent US12178846B2, “Methods of using gap junctions as therapeutic targets for the treatment of degenerative disorders of the retina” (The Research Foundation for The State University of New York, priority 2014, dated 2024).

Tested on: cells in the GCL of mouse retinas
Test: NMDA-induced excitotoxic cell death in the GCL of retina-eyecups
Assay type: cell-based
Experimental: All animal procedures were in compliance with the NIH Guide for the Care and Use of Laboratory Animals and approved by the Institutional Animal Care and Use Committees at SUNY College of Optometry. Experiments were performed on retinas of wild type (WT), connexin knockout (KO) mice (Cx36^−/−, Cx45^−/−, and Cx36^−/−/45^−/− dKO), and their heterozygous (Het) littermates. The methods used to impale and label neurons have been described previously (Hu et al., J Neurosci 23:[…] (2003); Völgyi et al., Journal of Comparative Neurology 512:664-687 (2009)). Briefly, flattened retina-eyecups were placed in a superfusion chamber, which was mounted on the stage of a BX51WI light microscope (Olympus) within a light-tight Faraday cage. […] The retina-eyecups were superfused with a modified, oxygenated Ames medium maintained at 35° C.
Various methods were employed to produce cell death. (1) Single cell apoptosis: CytC was injected into individual RGCs or Müller cells for 15 minutes after which retinas were incubated for 4 hours in oxygenated Ames medium before fixation. After streptavidin histology, apoptotic cells were detected with an anti-active caspase 3 antibody or with Terminal deoxynucleotidyl transferase dUTP nick end labeling (TUNEL) staining. (2) Excitotoxicity: To assess the contribution of GJs to cell death within populations of RGCs and amacrine cells we conducted parallel experiments in which retinas were preincubated for 20 minutes in normal Ames medium or in one containing the GJ blockers meclofenamic acid (MFA; 50 μM) or 18-beta-glycyrrhetinic acid (18Beta-GA; 25 μM). Both control and drug-treated retinas were then exposed for 1 hour to NMDA (100-300 μM) to induce excitotoxicity followed by 4 hours in the control Ames solution. (3) Retinal ischemia: Transient in vivo retinal ischemia was induced by introducing into the anterior chamber a 33-gauge needle attached to a saline-filled reservoir (0.9% sodium chloride) that was raised above the animal so as to increase intraocular pressure (IOP) to a level […]. MFA (2 μl, 500 μM) was administered intravitreally either 30 minutes before or 3 and 24 hours following the ischemic insult. […]
Apoptotic and necrotic cell death were assessed by cell counts following: (1) staining with Live/Death Viability Assay (calcein AM/ethidium homodimer (EthD) (Invitrogen); (2) TUNEL, or, (3) labeling for activated caspase 3. For population studies, dead cells were counted manually within 500×500 μm areas (5 areas per retina) from micrographs of whole-mounts using images acquired by confocal microscope. Nuclear cell counts were made per unit length (500 μm) of frozen retinal cross-sections labeled with propidium iodide (2 μg/ml).

In the case of `CC1(C)[C@@H](O)CC[C@]2(C)[C@H]3C(=O)C=C4[C@@H]5C[C@@](C)(C(=O)O)CC[C@]5(C)CC[C@@]4(C)[C@]3(C)CC[C@@H]12` [18Beta-GA, 18-Beta-glycyrrhetinic acid], the “cell viability, blocker alone” value (control experiments, 18Beta-GA or MFA alone without NMDA, p>0.1) is reported as “did not affect cell viability” and the “cell death in the GCL induced by excitotoxicity” value (retinas preincubated in 18Beta-GA 25 μM or MFA 50 μM, then NMDA 100-300 μM 1 h, vs NMDA alone, p<0.001) is reported as “significantly reduced”.
